Experimental data from patent US20040082623A1, “Fmoc-l-leucine and derivatives thereof as ppar-gamma agonists” (priority 2003, published 2004).

Legend:
TNBS-treated Balb/c mice = experiment: TNBS-induced colitis in Balb/c mice; type: in vivo; conditions: 50 mg/kg/day
Description: FIG. 9: F-L-Leu protects against colon inflammation in TNBS-treated Balb/c Mice. A: Ameho histologic scores (left panel) and survival rate (right panel) in TNBS-treated mice injected either with DMSO or F-L-Leu (50 mg/kg/day). B: TNFα and IL-1β mRNA levels in the colon of TNBS-treated mice injected with DMSO or F-L-Leu (50 mg/kg/day). Results are expressed as mean±SEM.
RNA was isolated from 3T3-L1 cells by the acid guanidinium ? thiocyanate/phenol/chloroform method (Chomczynski and Sacchi, 1987). Northern blot analysis of total cellular RNA was performed as described (Auwerx et al., 1989) ? Lipoprotein lipase (LPL), aP2 and 36B4 were used as probes (Graves et al., 1992 ? Laborda, 1991; Lefebvre et al., 1997). For RT-competitive PCR, total RNA (5-10 μg ? was reverse transcribed into complementary DNA (cDNA) (Desreumaux et al., 1999 ? Fajas et al., 1997). The RT reaction mixture was amplified by PCR using sense an ? antisense primers specific for β-actin, TNFα and IL-1β. The samples were subjected t ? 40 PCR cycles, consisting of denaturation for 1 min at 94° C., primer annealing for ? min at 52-58° C., and primer extension for 1.5 min at 72° C. using a Gene Amp PCR ? System 9700 (Perkin-Elner Corporation, Foster City, Calif.). The quantity of mRNA was expressed as the number of TNFα or IL-1β cDNA per β-actin cDNA molecules.
Male Balb/c mice (8 per group) were used for the colitis studies (Jackson laboratories, Bar Harbor, Me.). Colitis was induced by administration of 40 μl of a solution of TNBS (150 mg/kg, Fluka, Saint Quentin Fallavier, France) dissolved in NaCl 0.9% and mixed with an equal volume of ethanol (50% ethanol). This solution was administered intrarectally via a 3.5 F catheter (Ref EO 3416-1, Biotrol, Chelles, France) inserted 4 cm proximal to the anus in anesthesized mice [Xylasine (50 mg/kg of Rompun® 2%, Bayer Pharma, Puteaux, France) and Ketamine (50 mg/kg of Imalgene® 1000, Rhône Mérieux, France)]. Animals were sacrified by cervical dislocation under ether anesthesia two days after TNBS administration. The colon was quickly removed, opened, washed. A 2 cm colonic specimen located precisely 2 cm above the anal canal was dissected systematically in 4 parts. One part was fixed overnight in 4% paraformaldehyde acid at 4° C., dehydrated in alcohol and embedded in paraffin. Sections (5 μm) were then deparaffined with xylene and rehydrated by ethanol treatment. Stained sections with haematoxylin-eosin were examined blindly by a pathologist and scored according to the Ameho criteria (Ameho et al., 1997). The other parts of the colon were used for RNA isolation for the quantification of TNFα and IL1β mRNA expression.

PPARγ DE/p300Nt-GST = PPARγ DE/p300Nt-GST (Homo sapiens, UniProt P37231)
Description: The beads were then washed and the samples separated on SDS-PAGE and blotted. The blot was developed with anti-histidine antibodies.
The p300Nt-GST, fusion protein was generated by cloning the N-terminal part of the p300 protein (a.a. 2 to 516) downstream of the glutathione-S-transferase (GST) protein in the pGex-T1 vector (Pharmacia, Orsay, France). The fusion proteins were then expressed in Escherichia coli and purified on a glutathione affinity matrix (Pharmacia). Human PPARγ (aa. 203 to 477 of PPARγ) was subcloned into the pET15b (Novagen, Madison, Wis.) expression vector. The his-tagPPARγ2DE203-477 proteins were produced as follow. The protein was purified using a metal chelate affinity column with an affinity column Co^2+ coupled agarose (High Trap chelatin, Pharmacia). The protein was eluted with 20 mM Tris-HCl, 500 M NaCl, 130 mM imidazole and 1-2 propanediol 2.5% (pH 8.5). A second purification step was made by gel filtration (Superdex 200 16/60, Pharmacia). The protein was eluted with 20 mM Tris-HCl, 100 mM NaCl, 5 mM DTT and 1-2 propanediol 2,5% (pH 8.5).

PPARγ2 = target: T1, PPARγ2 (Homo sapiens, UniProt P37231); experiment: Transient transfection, PPARγ2 reporter (luciferase/β-galactosidase) in Hep G2 cells; type: cell-based; design: a construct containing the entire cDNA of the human PPARγ2 (hPPARγ2); expressed in transfected cells; host or cells: Hep G2
T1 sequence (P37231 1-505): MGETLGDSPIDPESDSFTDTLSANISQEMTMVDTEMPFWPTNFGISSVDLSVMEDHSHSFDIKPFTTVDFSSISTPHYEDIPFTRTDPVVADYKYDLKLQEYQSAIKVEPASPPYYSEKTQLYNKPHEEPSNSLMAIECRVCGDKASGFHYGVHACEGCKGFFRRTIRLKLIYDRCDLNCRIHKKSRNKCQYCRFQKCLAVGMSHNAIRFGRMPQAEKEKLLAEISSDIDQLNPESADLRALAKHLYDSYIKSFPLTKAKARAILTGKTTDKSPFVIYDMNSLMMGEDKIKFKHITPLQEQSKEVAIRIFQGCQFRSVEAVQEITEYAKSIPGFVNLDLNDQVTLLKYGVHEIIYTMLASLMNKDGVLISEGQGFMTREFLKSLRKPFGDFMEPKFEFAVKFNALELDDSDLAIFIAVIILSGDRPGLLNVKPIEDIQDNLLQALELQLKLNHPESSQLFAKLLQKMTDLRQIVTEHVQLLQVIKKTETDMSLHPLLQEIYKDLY
Description: Hep G2 cells were co-transfected with an expression vector for PPARγ2 (0.1 μg/well), pGL3-(Jwt)3TKLuc reporter construct (0.5 μg/well), and pCMV-βGal (0.5 μg/well), as a control of transfection efficiency (0.5 μg/well). The were then grown during 24 h in the presence or absence of indicated compound Activation is expressed as relative luciferase activity/β-galactosidase activity. Each point was performed in triplicate. This figure is representative of three independent experiments.
RK13 cells (A and D), CV1 cells (B) or Hep G2 cells (C) were co-transfected with an expression vector for PPARγ2 (0.1 μg/well), pGL3-(Jwt)3TKLuc reported construct (0.5 μg/well), and pCMV-βGal (0.5 μg/well), as a control of transfection efficiency (0.5 μg/well). They were then grown during 24 h in the presence or absence of indicated compound. Activation is expressed as relative luciferase activity/β ? galactosidase activity. Each point was performed in triplicate, and each figure i ? representative of four independent experiments.
The CV1, RK-13, and Hep G2 cell lines were obtained from ATCC (Rockville, Md.). Cells were maintained in Dulbecco's modified Eagle's minimal essential medium (DMEM) supplemented with 10% fetal calf serum (FCS), L-glutamine, and antibiotics. Transfections with chloramphenicol acetyltransferase (CAT) or luciferase (luc.) reporter constructs were carried out exactly as described previously (Schoonjans et al., 1996). The pGL3-(Jwt)3TKLuc and the pGL3-(Jwt)3TKCAT reporter constructs contain both three tandem repeats of the J site of the apolipoprotein A-II promoter cloned upstream of the herpes simplex virus thymidine kinase (TK) promoter and the luciferase or the CAT reporter genes respectively (Vu-Dac et al., 1995). The following expression vectors were used; pSG5-hPPARγ2, a construct containing the entire cDNA of the human PPARγ2 (hPPARγ2) (Fajas et al., 1997); pSG5-mPPARα (Isseman et al., 1993); and pCMV-βGal, as a control of transfection efficiency.

Sequence of PPARγ DE/p300Nt-GST (Q09472 2-516 partner limits assumed, one chain of several): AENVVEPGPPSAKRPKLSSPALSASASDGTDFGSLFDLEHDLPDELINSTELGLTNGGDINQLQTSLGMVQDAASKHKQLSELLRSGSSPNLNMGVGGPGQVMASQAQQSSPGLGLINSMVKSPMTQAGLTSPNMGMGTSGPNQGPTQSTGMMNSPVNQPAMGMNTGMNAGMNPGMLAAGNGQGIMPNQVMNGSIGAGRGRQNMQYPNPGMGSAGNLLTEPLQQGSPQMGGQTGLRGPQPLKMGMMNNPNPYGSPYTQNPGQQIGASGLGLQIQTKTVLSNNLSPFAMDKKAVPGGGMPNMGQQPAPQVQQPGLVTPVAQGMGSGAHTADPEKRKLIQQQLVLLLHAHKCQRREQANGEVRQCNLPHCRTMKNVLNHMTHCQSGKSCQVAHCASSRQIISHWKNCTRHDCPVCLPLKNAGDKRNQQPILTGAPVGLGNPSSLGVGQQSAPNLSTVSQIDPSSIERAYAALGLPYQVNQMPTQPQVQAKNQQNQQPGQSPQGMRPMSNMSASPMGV

Question: What does the source list for `CC(C)CC(NC(=O)OCC1c2ccccc2-c2ccccc21)C(=O)O` [F-L-Leu, N-(9-fluroroenylmethyloxycarbonyl)-L-Leucine]?
Answer: Ameho histologic score (TNBS-treated Balb/c mice): reduced significantly; IL-1β mRNA levels in colon (TNBS-treated Balb/c mice): significant decrease; TNFα mRNA levels in colon (TNBS-treated Balb/c mice): significant decrease; survival rate (TNBS-treated Balb/c mice; 4 days, two days after TNBS, control 76%): 100%; potency relative to rosiglitazone (fold lower) (PPARγ DE/p300Nt-GST; p300 pull-down): 2- to 3 fold; formation of PPARγ DE/p300Nt-GST complexes (PPARγ DE/p300Nt-GST; vs DMSO, rosiglitazone 10^−4 M, F-L-Leu 10^−3 M): effectively induced; optimal concentration for PPARγ activation compared with PG J2 (PPARγ2; HepG2): similar; optimal concentration relative to concentration of rosiglitazone or pioglitazone necessary to reach the same efficacy (PPARγ2; HepG2, fold higher, pioglitazone data not shown): 100 fold; PPARγ activation (relative luciferase activity/β-galactosidase activity) (PPARγ2; HepG2 cells, pSG5-hPPARγ2, 24 h, F-L-leu at 10^−5 M): Significant PPARγ activity; concentration required for optimal PPARγ activation (PPARγ2; human HepG2 cells): 10^−5 M; potency in transfection experiments relative to rosiglitazone (PPARγ2; summary statement, cell line not named): two orders of magnitude less potent
